{
  "source": "patent EP0366451A2",
  "about": "“The use of oxidized polyamines, especially NN'-Bis-(3-propionaldehyde)-1-4-diaminobutane (sperminedialdehyde) as immunosuppressive agents” (ORTHO PHARMACEUTICAL CORPORATION, priority 1988, dated 1990)",
  "key": {"[1]": {"test_system": "NADP-linked cytosolic ALDH", "assay": "NADP-linked cytosolic ALDH assay, L1210/CPA cells", "type": "biochemical, Murine", "settings": "SDA as substrate, L1210/CPA cells", "method": "(§1) Cultured murine leukemic cells and livers (excised from mice immediately after cervical dislocation) were homogenized in 3 volumes of ice-cold 1.15% KCl and 1 mM EDTA. The homogenate was centrifuged at 100,000 g for 45 min and the resulting supernatant was used to measure cytosolic ALDH activity. For particulate ALDH assay, the pellet (and homogenate for total ALDH) was resuspended in homogenizing buffer and treated with 0.25% Triton X-100 for 30 min at 4°C. The solubilized preparations were centrifuged at 48,000 g for 30 min and the supernatants were drawn off for ALDH determinations.\nALDH activity was measured by monitoring the reduction of NAD or NADp for 5-6 min at […] at 37°C in DU70 spectrophotometer (Beckman). The assay mixture contained 50 mM potassium phosphate buffer, pH 7.4, 2.0 mM NAD (or NADP) and 1.0 mM EDTA. The reaction was started by adding the substrate (SDA or other aldehyde) to the prewarmed (5 min at 37°C) assay mixture containing enzyme preparation. Pyrazole (0.1 mM) was added particularly for liver enzyme, to inhibit alcohol dehydrogenase. The apparent Km and maximum velocity (Vmax) values were calculated using a Lineweaver-Burk plot based on the estimation of the slope by regression analysis. Enzyme activity was expressed as mU (nmoles/min) per mg of protein. Protein contents were determined by the Bradford method, using bovine serum albumin as the standard. […]"}, "Murine bone marrow cells": {"test_system": "Murine bone marrow cells", "assay": "Con A driven mouse bone marrow cell proliferation ([3H]-thymidine incorporation)", "type": "cell-based", "method": "Mouse spleen and bone marrow cells were incubated separately with different concentrations of spermine dialdehyde in vitro for 1 hour. Cells were washed extensively and set up in a Con A stimulated proliferation assay. A graph is depicted wherein percentage response is plotted as a function of various concentrations of spermine dialdehyde.\nMice were sacrificed by cervical dislocation and disinfected by dipping in a Dettol solution. Bone marrow cells were obtained from suitable long bones by flushing with a […] needle. Cells were then washed three times with RPMI before use.\n(§2) Mouse spleen cells were cultured for 3 days in flat bottom microtiter relates at 10⁵ cells per well in the presence of […] of Con A. 3H-thymidine (0.1 microcurie/well) was added for the last 4-6 hours of the culture period. Cells were harvested as described above.\nMouse bone marrow and spleen cells were each incubated for 1 hour with different concentrations of spermine dialdehyde. Cells were then washed 3 times with RPMI and set up in a Con A driven proliferation assay. Results are depicted in Figure 2.\n(§3) For [³H]-thymidine incorporation, drug or vehicle treated bone marrow or spleen cells were plated in RPMI-1640, containing 10% fetal bovine serum, 10 µM β-mercaptoethanol, 25 mM HEPES and 2 mM glutamine. Con-A (4 µg/ml and […]) was used as mitogens for bone marrow and spleen cells. […]"}, "L1210/CPA cells": {"test_system": "L1210/CPA cells", "assay": "L1210/CPA cell proliferation ([3H]-thymidine incorporation)", "type": "cell-based, Murine", "method": "(§4) Murine lymphocytic leukemia cell lines, L1210/CPA and L1210/0 (als. known as Le/CPA and Le/0) were kindly provided by Dr. F. Struck, Southern Research Institute, Birmingham, AL. Cells were grown in RPMI-1640, supplemented with 10% horse serum, 100 units/ml penicillin and 100 µg/ml streptomycin. The cultures were incubated at 37°C in a humidified atmosphere with 5% CO₂ in air. Bone marrow cells were flushed from femurs of mice with RPMI-1640, using a tuberculin syringe fitted with a 25 gauge meedle. For spleen cells, spleens were removed and passed through a fine wire mesh to get a single homogenous cell suspension. In either case, cells were centrifuged, washed twice and resuspended in the drug exposure medium (see below). Cell viability was determined by trypan blue exclusion and the cell suspension was diluted to the desired concentration.\n(§5) Murine leukemic cells and bone marrow/spleen cells were treated with SDA (1 x 10^-6 M to 5 x 10⁻⁵ M) in RPMI-1640 or PBS based solution. Wherever mentioned, cells were pretreated with DEAB (10-30 µM) for 30-60 min at 37°C and then exposed to SDA.\nas §3"}, "L1210/0 cells": {"test_system": "L1210/0 cells", "assay": "L1210/0 cell proliferation ([3H]-thymidine incorporation)", "type": "cell-based, Murine", "method": "as §4, §5\n(§6) For [³H]-thymidine incorporation, drug or vehicle treated bone marrow or spleen cells were plated in RPMI-1640, containing 10% fetal bovine serum, 10 µM β-mercaptoethanol, 25 mM HEPES and 2 mM glutamine. Con-A (4 µg/ml and […]) was used as mitogens for bone marrow and spleen cells. Three days later, [³H]-thymidine (0.2 µCi/well) was added and cells were harvested after 12-18 hrs. L1210/CPA and L1210/0 cells (0.1 - 1 x 10⁵ cells/well were plated in RPMI-1640 containing 10% horse serum. [³H]-thymidine was added after 24 hrs and cells were filtered on GF/B filter paper for scintillation counting."}, "[2]": {"test_system": "BFU-E and CFU-GM colonies", "assay": "Hemopoietic colony formation assay", "type": "cell-based, murine", "method": "Hemopoietic colony forming cells were cultured as described in the art by Iscove & Sieber with minor modifications. SDA/DEAB treated or vehicle treated cells were added to murine hemopoietic culture mixture with erythropoietin and conditioned medium (Terry Fox Laboratories, Vancouver, Canada). The mixture was vortexed and 1-2 ml portions (1 x 10⁵ bone marrow cells) were plated in duplicate in 35 mm plastic petri dishes (lux suspension dishes, Flow Laboratories). The culture dishes were incubated in a humidified atmosphere (95% air : 5% CO₂) at 37°C. Colonies were counted on day 8 or 10 for BFU-E, CFU-GM and CFU-mix. Colony types were confirmed with Wright/Giemsa Stain."}, "cytosolic ALDH": {"test_system": "cytosolic ALDH", "assay": "NAD-linked cytosolic ALDH assay, L1210/CPA cells", "type": "biochemical, Murine", "settings": "as substrate, L1210/CPA cytosol", "method": "as §1\n(§7) ALDH activity was measured by monitoring the reduction of NAD or NADp for 5-6 min at […] at 37°C in DU70 spectrophotometer (Beckman). The assay mixture contained 50 mM potassium phosphate buffer, pH 7.4, 2.0 mM NAD (or NADP) and 1.0 mM EDTA. The reaction was started by adding the substrate (SDA or other aldehyde) to the prewarmed (5 min at 37°C) assay mixture containing enzyme preparation. Pyrazole (0.1 mM) was added particularly for liver enzyme, to inhibit alcohol dehydrogenase. The apparent Km and maximum velocity (Vmax) values were calculated using a Lineweaver-Burk plot based on the estimation of the slope by regression analysis. Enzyme activity was expressed as mU (nmoles/min) per mg of protein. Protein contents were determined by the Bradford method, using bovine serum albumin as the standard."}, "splenic T cell": {"test_system": "splenic T cell", "assay": "Concanavalin A-stimulated splenic T cell proliferation ([3H]-thymidine incorporation)", "type": "cell-based, Mouse", "method": "Splenic cells were treated with various concentrations of SDA or an analogue for 30 min. at 37°C. Cells were washed and cultured in the presence of Concanavalin A for 3 days. [³H] Thymidine 0.1µCi/well was added and cells were harvested after 18-24 hrs.\nas §2, §6"}, "C3H mice": {"test_system": "C3H mice", "assay": "Skin graft transplant (Balb/c skin onto C3H mice)", "type": "in vivo", "description": "Spermine dialdehyde was administered s.c, right after transplantation and continued throughout the study. Cyclosporin A (CsA) was run along as a positive control."}, "ALDH": {"test_system": "ALDH", "assay": "ALDH assay in L1210/0 cells", "type": "biochemical, Murine", "settings": "SDA as substrate", "method": "as §1, §7"}, "[3]": {"settings": "intraperitoneally; Israel et al.; cited from earlier work"}},
  "note": "pIC50: −log10 of the molar value.",
  "data": [
    {"compound": "O=CCCNCCCCNCCC=O", "note": "[SDA, NN′-Bis-(3-propionaldehyde)-1-4-diaminobutane]", "values": [
      {"measurement": "activity of NADP-linked cytosolic ALDH", "setting": "[1]", "value": "3.0-3.5 mU/mg protein"},
      {"measurement": "[³H]-thymidine incorporation after DEAB pretreatment", "setting": "Murine bone marrow cells; DEAB (30 µM) pretreatment", "value": "higher susceptibility at lower concentrations of SDA"},
      {"measurement": "[³H]-thymidine incorporation", "setting": "Murine bone marrow cells; treated in PBS based medium, cultured 3 days", "value": "dose dependent decrease"},
      {"measurement": "effect of DEAB pretreatment on cytotoxicity of SDA", "setting": "L1210/CPA cells; DEAB (20 µM) pretreatment", "value": "potentiated the cytotoxicitty of SDA"},
      {"measurement": "pIC50", "setting": "L1210/CPA cells; Mus musculus, L1210, [³H]-thymidine incorporation, read-out: mean IC₅₀", "value": 5.08},
      {"measurement": "effect of DEAB pretreatment on cytotoxicity of SDA", "setting": "L1210/0 cells; DEAB (20 µM) pretreatment", "value": "little or no effect"},
      {"measurement": "pIC50", "setting": "L1210/0 cells; Mus musculus, L1210/0, [³H]-thymidine incorporation, read-out: mean IC₅₀", "value": 5.33},
      {"measurement": "sensitivity of L1210/0 cells relative to L1210/CPA cells", "setting": "L1210/0 cells; proliferation assays", "value": 2, "unit": "fold"},
      {"measurement": "suppression of BFU-E and CFU-GM colonies", "setting": "[2]; 50 µM", "value": "almost total suppression"},
      {"measurement": "sensitivity of myeloid colony forming cells after DEAB pretreatment", "setting": "[2]; SDA 10-25 µM, DEAB pretreatment", "value": "further potentiated the sensitivity"},
      {"measurement": "Km", "setting": "cytosolic ALDH; NAD, ± SEM, 3-4 experiments", "value": 41.6, "unit": "µM"},
      {"measurement": "Specific (activity of ALDH)", "setting": "cytosolic ALDH; propionaldehyde 1.0 mM", "value": "6.8 ± 1.6", "unit": "mU/mg Protein"},
      {"measurement": "susceptibility of spleen cells to suppression compared with bone marrow cells", "setting": "splenic T cell; 1 hour incubation, Figure 2", "value": "much more susceptible to suppression"},
      {"measurement": "effect of addition of DEAB on the potency of SDA", "setting": "splenic T cell; DEAB (20 µM)", "value": "no significant effect"},
      {"measurement": "pIC50", "setting": "splenic T cell; Mus musculus, T-cell, cells treated 30 min at 37°C, washed, cultured with Concanavalin A for 3 days, Figure 8, read-out: IC₅₀", "value": 6.15},
      {"measurement": "IC100", "setting": "splenic T cell; Mus musculus, T-cell, read-out: SDA treatment that abolished Con A-induced murine spleen cell proliferation", "value": "8 to 12", "unit": "µM"},
      {"measurement": "skin graft survival", "setting": "C3H mice; SDA s.c., all 3 doses, especially 10 mg/kg and 20 mg/kg, Figure 6", "value": "prolonged skin graft survival"},
      {"measurement": "efficacy in skin graft experiments compared with CsA", "setting": "C3H mice; mouse, in vivo", "value": "more effective than a comparable dose of CsA"},
      {"measurement": "enzyme activity in L1210/0 cells", "setting": "ALDH", "value": "did not exhibit any detectable enzyme activity"},
      {"measurement": "LD100", "setting": "[3]", "value": 40, "unit": "mg/kg"}
    ]}
  ]
}
